From patent US20060003896A1, “Novel diterpenoid compounds imparting stress resistance to plants” (National Institute of Agrobiological Sciences, priority 2002, published 2006)

Experiments:
[1] = test system: TMV; assay: Defense of tobacco against TMV infection (necrotic lesion size, TMV coat protein); assay type: in vivo, tobacco mosaic virus
Method: To complete the infection, this healthy leaf was allowed to stand at room temperature for 30 minutes and washed with water removing the silicon carbide, after air drying, was put into a transparent plastic box spread with wet filter papers, followed by culture at 30° C. for 40 hours, then at 20° C. for 6 hours.
In this Example, the substance in this invention was administered to non-TMV-infected tobacco as a target. TMV stimulation was then given, under the same conditions as those in Example 1, to plants administered with the substance of this invention at the concentrations shown in FIG. 12 and tp control plant not administered to measure the size of necrotic lesions and the amount of TMV coat protein.

[2] = test system: WIPK; assay: WIPK activity measurement (MBP phosphorylation by anti-WIPK immune complex) in treated tobacco leaves; assay type: cell-based, Nicotiana tabacum cv. Samsun NN
Method: The WIPK induced activity assay was conducted as follows: A filter paper was spread in a glass Petri dish of 3 cm inside diameter, onto which the test solution for assay was added, organic solvent was removed under the flow of nitrogen gas, and 10 mM Mes-NaOH (pH 5.6) of 1 ml was added, on which three leaf disks (diameter 9 mm) stamped out of the tobacco leaves were placed per Petri dish and cultured at 24° C. In two hours, the disks were collected and immediately frozen in liquid nitrogen to be used in WIPK activity measurement that was conducted following the method described in Seo et al. (1999) Plant Cell 11, 289-291. The outline is as follows:
Crude protein of 50 μg and anti-WIPK antibody were reacted and the myelin basic protein phosphorylation activity of WIPK in the resultant immune complex was measured.
(§1) Isolated material was dissolved in dimethyl sulfoxide (DMSO) and diluted with 10 mM Mes-NaOH (pH 5.6) to an adequate concentration. If it was used in an assay, the DMSO concentration was kept below 0.1%. […] 10 mM Mes-NaOH (pH 5.6) without active substance of the invention was used as a control group. In a certain amount of time, the leaves were collected and immediately frozen in liquid nitrogen to conduct WIPK activity measurement or RNA extraction for Northern blot analysis. WIPK activity measurement, RNA extraction and Northern blot analysis were performed following Seo et al. (1999) plant Cell 11, 289-291. WIPK activity was measured 15 minutes after the subject was allowed to absorb the isolated compound at the given concentration through the petiole. Only buffer was absorbed in a control group. As another control group (healthy leaf), leaves were cut from tobacco plant body to be immediately subjected to WIPK activity measurement. For proteinase inhibitor II (PI-II), basic PR-1, basic PR-2 genes and ACO, transcription product amounts of PI-II, basic PR-1, basic PR-2 genes and ACO-coding gene were measured after allowing the subject absorb the isolated compound at the given concentration through the petiole for a period of time. As a control group, only buffer was absorbed. The outline is as follows:
(§2) Using natural isolated substances, preparations at concentrations of 10 and 100 pM, and 1 and 100 nM were prepared and these natural preparations or water were penetrated into tobacco leaf disks, followed by sampling at 30 minutes after treatment, to measure the MBP phosphorylation activity of WIPK and SIPK as described above.

[3] = test system: SIPK; assay: SIPK activity measurement (MBP phosphorylation by anti-SIPK immune complex) in treated tobacco leaves; assay type: cell-based, Nicotiana tabacum cv. Samsun NN
Method: As an active substance, the substance isolated in Example 1 was used as a standard. The isolated substance was dissolved in dimethyl sulfoxide (DMSO) and diluted to adequate concentration (0.3, 1.5 and 3 ng/ml) with 10 mM Mes-NaOH (pH 5.6). If it was used in an assay, the DMSO concentration was kept below 0.1%. […] 10 mM Mes-NaOH (pH 5.6) without active substance of the invention was used as a control group. In a certain amount of time, the leaves were collected and immediately frozen in liquid nitrogen to measure the SIPK activity. The measurement was conducted as follows:
Crude protein of 50 μg and anti-SIPK antibody were reacted and the myelin basic protein (MBP) phosphorylation activity of SIPK in the resultant immune complex was measured.
as §2

[4] = test system: ACO-coding gene; assay: Northern blot analysis of transcription products in treated tobacco leaves; assay type: cell-based, Nicotiana tabacum cv. Samsun NN; conditions: through the petiole
Method: as §1, with “follows: Nucleic acid hybridization reaction was performed on nylon membrane containing 20 μg total RNA with ^32P-radiolabeled cDNA of tobacco PI-II, basic PR-1, basic PR-2 genes and ACO-coding gene. After the membrane was washed it was used to expose to an X-ray film.” for “follows:”

[5] = test system: basic PR-1 gene; assay: as above; assay type: cell-based, Nicotiana tabacum cv. Samsun NN; conditions: through the petiole
Method: as §1, with “follows: Nucleic acid hybridization reaction was performed on nylon membrane containing 20 μg total RNA with ^32P-radiolabeled cDNA of tobacco PI-II, basic PR-1, basic PR-2 genes and ACO-coding gene. After the membrane was washed it was used to expose to an X-ray film.” for “follows:”

[6] = test system: basic PR-2 gene; assay: as above; assay type: cell-based, Nicotiana tabacum cv. Samsun NN; conditions: through the petiole
Method: as §1, with “follows: Nucleic acid hybridization reaction was performed on nylon membrane containing 20 μg total RNA with ^32P-radiolabeled cDNA of tobacco PI-II, basic PR-1, basic PR-2 genes and ACO-coding gene. After the membrane was washed it was used to expose to an X-ray film.” for “follows:”

[7] = test system: proteinase inhibitor II gene; assay: as above; assay type: cell-based, Nicotiana tabacum cv. Samsun NN
Method: as §1, with “follows: Nucleic acid hybridization reaction was performed on nylon membrane containing 20 μg total RNA with ^32P-radiolabeled cDNA of tobacco PI-II, basic PR-1, basic PR-2 genes and ACO-coding gene. After the membrane was washed it was used to expose to an X-ray film.” for “follows:”

[8] = test system: JA; assay: Intrinsic JA level in tobacco leaves after absorption through the petiole; assay type: cell-based; conditions: 3-, 6-, 12- or 24-hours culture
Method: To evaluate whether the induction of basic pathogenesis-related protein gene (PR-1 and PR-2) and proteinase inhibitor II gene by synthetic substance occurred through JA or SA, 100 nM or 1 μM WAF-1 or water was absorbed into tobacco leaves through the petiole, followed by culture at 24° C., to measure the intrinsic level of JA.

[9] = test system: SA; assay: Intrinsic SA level in tobacco leaves after absorption through the petiole; assay type: cell-based; conditions: 3-, 6-, 12- or 24-hours culture
[10] = test system: ethylene; assay: Release of ethylene from treated tobacco leaf; assay type: cell-based
Method: Ethylene acts as a signal in the induction of basic PR protein of tobacco plant, so the release of ethylene was measured after externally giving WAF-1 to a tobacco leaf as above to evaluate the effects of synthetic substance on ethylene accumulation.

[11] = test system: WIZZ gene; assay: RNA gel blotting of WIZZ transcript in tobacco leaf disks; assay type: cell-based; conditions: 1 nM, 30 minutes after penetrance
Method: The transition in expression of the WIZZ transcript after stimulation with WAF-1 in this invention was ascertained using the following method. Leaf disks stamped out of tobacco leaves were penetrated with 1 nM WAF-1 solution or water and collected at 30 minutes after penetrance to be used for total RNA extraction. Total RNA extraction followed the method described in Seo et al. Plant Cell 1999, 11, 289-299. Isolated total RNA was subjected to RNA gel blotting analysis following the above procedure. A fragment, whose sequence corresponded to bases 877-1211 in the WIZZ cDNA (335 bp) was amplified, and used as a probe. As an internal standard probe, actin cDNA (described in Seo et al. 2000 12, 917-932) was also used. An RNA gel blot membrane containing 20 μg total RNA per lane was analized.

[12] = test system: vermin; assay: Presenting vermin to rice administered with the substance; assay type: in vivo; conditions: vermin presented
Method: Therefore, an experiment was conducted by administering this substance to plants and presenting vermin to the administered plant. In this example, rice was used as a target.

[13] = test system: Arabidopsis (Arabidopsis thaliana); assay: Growth of periphery and height of stem after spraying; assay type: in vivo; conditions: sprayed, 300, 100 and 30 ng/ml, 24° C.
Method: (§3) In this Example, 15-day-old Arabidopsis (Arabidopsis thaliana), 1-month-old tobacco (Nicotiana tabacum cv. Samsun—NN), or 20-day-old rice (Oryza sativa) was used to provide plant bodies. The compound of this invention was dissolved in dimethyl sulfoxide (DMSO) and diluted with 10 mM Mes-NaOH (pH 5.6) to an adequate concentration (300, 100 and 30 ng/ml). 10 mM of Mes-NaOH containing the compound of this invention at the given concentration was sprayed to tobacco and rice plant bodies, followed by culture at 24° C. As a control group, 10 mM Mes-NaOH (pH 5.6) free of the compound of this invention was used. In a certain amount of time, the periphery and the height of stem above ground level were measured in rice, Arabidopsis and tobacco plant bodies.

[14] = test system: rice (Oryza sativa); assay: as above; assay type: in vivo; conditions: sprayed, 300, 100 and 30 ng/ml, 24° C.
Method: as §3

[15] = test system: tobacco (Nicotiana tabacum cv. Samsun—NN); assay: as above; assay type: in vivo; conditions: sprayed, 300, 100 and 30 ng/ml, 24° C.
Method: as §3

[16] = test system: petunia plant body; assay: Flowering of petunia plant bodies after spraying; assay type: in vivo
Method: In this example, 1-month-old petunia plant body was used. The compound of this invention was dissolved in dimethyl sulfoxide (DMSO) and diluted with 10 mM Mes-NaOH (pH 5.6) to an adequate concentration (300, 100 and 30 ng/ml). 10 mM Mes-NaOH containing the compound of this invention at the given concentration was sprayed on the petunia plant bodies, followed by culture at 24° C. In a control group, 10 mM Mes-NaOH (pH 5.6) without the compound of this invention was used. After a certain amount of time, observation of the gross flowering features of the plant bodies was performed. The administration of the compound of this invention to plants was then discontinued, only buffer was sprayed, and the flowering was observed.

[17] = 1, 5 and 10 nM through the petiole
[18] = tobacco leaf disks, 30 minutes after treatment

(11E,13E)-labda-11,13-diene-8α,15-diol [WAF-1]
TMV coat protein amount ([1]; tobacco leaf, 100 pM or 100 nM vs water): decrease | concentration above which the size of necrotic lesions decreased ([1]; tobacco, TMV stimulation, 10 pM to 100 nM, dose-dependent): higher than 100 pM

CC(/C=C/[C@@H]1[C@@]2(C)CCCC(C)(C)[C@@H]2CC[C@@]1(C)O)=C\CO [WAF-1, (11E,13E)-labda-11,13-diene-8α,15-diol]
time at which WIPK activity was maximized [2, 17]: 15 min | time at which induction of WIPK activity was observed [2, 17]: 5 min | WIPK activity at 30 minutes ([2]; 1, 5 and 10 nM through the petiole, 30 minutes): retained maximum activity | induction of WIPK activity ([2]; each concentration of FIG. 2A given to leaf through the petiole, 15 minutes): induction of WIPK activity at any concentration | concentration above which activation of WIPK is significant [2, 18]: > 10 pM | time at which induction of SIPK activity was maximized [3, 17]: 15 min | induction of SIPK activity ([3]; each concentration of FIG. 4 (0.3, 1.5 and 3 ng/ml) through the petiole, 15 minutes): induction of SIPK activity at any concentration | concentration above which activation of SIPK is significant [3, 18]: > 10 pM | accumulation of ACO [4]: accumulation | accumulation of basic PR-1 [5]: accumulation | accumulation of basic PR-2 [6]: accumulation | amount of proteinase inhibitor II transcript compared with control group ([7]; 16 hours): significantly more | time at which accumulation of transcription products of proteinase inhibitor II gene was detected ([7]; examined in 2, 6 and 16 hours, concentration of FIG. 3, through the petiole): 16 h | amount of JA in treated leaves ([8]; 100 nM): at the same level as those treated with water | amount of JA in treated leaves ([8]; 1 AM (so in the source)): at the same level as those treated with water | amount of SA in treated leaves ([9]; 100 nM): at the same level as those treated with water | amount of SA in treated leaves ([9]; 1 AM (so in the source)): at the same level as those treated with water | level of ethylene released from leaves, relative to leaf treated with water ([10]; 100 nM): 1.2 times | level of ethylene released from leaves, relative to leaf treated with water ([10]; 1 μM): 1.4 times | level of WIZZ transcript compared with leaf disks impregnated with water [11]: higher | growth in administered rice compared with rice not administered [12]: Growth was regulated | growth of periphery and height of stem vs control group [13]: delay in growth of the periphery and height of stem | growth of height above ground level vs control group [14]: growth of height above ground level was observed | growth of periphery and height of stem vs control group [15]: delay in growth of the periphery and height of stem | flowering after discontinuation of administration ([16]; only buffer sprayed): observation of flowering | flowering vs control group ([16]; sprayed, 300, 100 and 30 ng/ml, 24° C.): delay in flowering
